# Measurements from US9012491B2, “Heterocyclic boronic acid ester derivatives and therapeutic uses thereof” (priority 2011, dated 2015).
# Where two headings read alike, the source gives them in different places.
# Legend:
# Type in all cases: cell-based
# PAM2035 (class C) = conditions: tigemonam at 4 μg/mL, strain PAM2035, class C
# Method: (§1) Selected β-lactamase inhibitors were tested for their ability to potentiate the monobactam tigemonam. […] Tigemonam is present in the test medium at 4 μg/mL. Compounds tested at the highest concentration of 40 μg/mL. In this assay potency of compounds is determined as a concentration of BLIs to inhibit growth of bacteria in the presence of 4 μg/mL of […] (MPC@4).
# KPX1001 (OXA-2, class D) = assay: Tigemonam potentiation (MPC@4) by β-lactamase inhibitors; conditions: tigemonam at 4 μg/mL, strain KPX1001, OXA-2, class D
# Method: as §1
# ec308 (SHV-5) = assay: as above; conditions: tigemonam at 4 μg/mL; strain ec308, class A ESBL SHV-5; class symbols
# Method: as §1
# ECL1002 (class C) = assay: as above; conditions: tigemonam at 4 μg/mL; strain ECL1002, class C; class symbols
# Method: as §1
# ec302 (TEM-10) = assay: as above; conditions: tigemonam at 4 μg/mL; strain ec302, class A ESBL TEM-10; class symbols
# Method: as §1
# KP1009 (CTX-M-15) = assay: as above; conditions: tigemonam at 4 μg/mL; strain KP1009, class A ESBL CTX-M-15; class symbols
# Method: as §1
# EC1010 (CMY-6, class C) = assay: as above; conditions: tigemonam at 4 μg/mL; strain EC1010, CMY-6, class C; class symbols
# Method: as §1
# KP1007 (OXA-10, class D) = assay: as above; conditions: tigemonam at 4 μg/mL; strain KP1007, OXA-10, class D; class symbols
# Method: as §1
# EC1009 (TEM-10) = assay: as above; conditions: tigemonam at 4 μg/mL; strain EC1009, class A ESBL TEM-10; class symbols
# Method: as §1
# ec304 (TEM-26) = assay: as above; conditions: tigemonam at 4 μg/mL; strain ec304, class A ESBL TEM-26; class symbols
# Method: as §1
# KP1012 (SHV-18) = assay: as above; conditions: tigemonam at 4 μg/mL; strain KP1012, class A ESBL SHV-18; class symbols
# Method: as §1
# KP1010 (SHV-12) = assay: as above; conditions: tigemonam at 4 μg/mL; strain KP1010, class A ESBL SHV-12; class symbols
# Method: as §1
# KP1005 (CTX-M-14) = assay: as above; conditions: tigemonam at 4 μg/mL; strain KP1005, class A ESBL CTX-M-14; class symbols
# Method: as §1
SMILES,MPC4 PAM2035 (PAM2035 (class C)) [µg/mL],"MPC4 OXA-2, KPX1001 (KPX1001 (OXA-2, class D)) [µg/mL]",MPC4 PAM2035 (PAM2035 (class C); class symbols),MPC4 SHV-5 ec308 (ec308 (SHV-5)),MPC4 ECL1002 (ECL1002 (class C)),MPC4 TEM-10 ec302 (ec302 (TEM-10)),MPC4 CTX-M-15 KP1009 (KP1009 (CTX-M-15)),"MPC4 CMY-6, EC1010 (EC1010 (CMY-6, class C))","MPC4 OXA-10, KP1007 (KP1007 (OXA-10, class D))",MPC4 TEM-10 EC1009 (EC1009 (TEM-10)),MPC4 TEM-26 ec304 (ec304 (TEM-26)),MPC4 SHV-18 KP1012 (KP1012 (SHV-18)),MPC4 SHV-12 KP1010 (KP1010 (SHV-12)),MPC4 CTX-M-14 KP1005 (KP1005 (CTX-M-14)),"MPC4 OXA-2, KPX1001 (KPX1001 (OXA-2, class D); class symbols)"
O=C(O)[C@H]1/C(=C/CO)O[C@@H]2CC(=O)N21 [Clavulanic Acid],>40,1.25,–,–,–,–,–,–,–,–,–,–,–,–,–
"O=C(O)CC1COC[C@H](NC(=O)Cc2cccs2)B(O)O1 (stereo partly drawn) [Compound 1, 2-((3R)-2-hydroxy-3-(2-(thiophen-2-yl)acetamido)-1,5,2-dioxaborepan-7-yl)acetic acid]",–,–,Y (Y = MPC@4 of 2 μg/mL to 10 μg/mL.),Y (Y = MPC@4 of 2 μg/mL to 10 μg/mL.),Y (Y = MPC@4 of 2 μg/mL to 10 μg/mL.),Z (Z = MPC@4 of greater than 10 μg/mL.),Y (Y = MPC@4 of 2 μg/mL to 10 μg/mL.),X (X = MPC@4 of less than 2 μg/mL.),Y (Y = MPC@4 of 2 μg/mL to 10 μg/mL.),Z (Z = MPC@4 of greater than 10 μg/mL.),Z (Z = MPC@4 of greater than 10 μg/mL.),X (X = MPC@4 of less than 2 μg/mL.),X (X = MPC@4 of less than 2 μg/mL.),Y (Y = MPC@4 of 2 μg/mL to 10 μg/mL.),X (X = MPC@4 of less than 2 μg/mL.)
"CC(=O)N1CC(CC(=O)O)OB(O)[C@@H](NC(=O)Cc2cccs2)C1 (stereo partly drawn) [Compound 10, 2-((3R)-5-acetyl-2-hydroxy-3-(2-(thiophen-2-yl)acetamido)-1,5,2-oxazaborepan-7-yl)acetic acid]",–,–,–,Y (Y = MPC@4 of 2 μg/mL to 10 μg/mL.),Y (Y = MPC@4 of 2 μg/mL to 10 μg/mL.),Z (Z = MPC@4 of greater than 10 μg/mL.),Y (Y = MPC@4 of 2 μg/mL to 10 μg/mL.),Y (Y = MPC@4 of 2 μg/mL to 10 μg/mL.),X (X = MPC@4 of less than 2 μg/mL.),–,–,–,X (X = MPC@4 of less than 2 μg/mL.),Y (Y = MPC@4 of 2 μg/mL to 10 μg/mL.),–
COC(=O)N1CC(CC(=O)O)OB(O)[C@@H](NC(=O)Cc2cccs2)C1 (stereo partly shown) [Compound 45],–,–,–,Y (Y = MPC@4 of 2 μg/mL to 10 μg/mL.),–,Z (Z = MPC@4 of greater than 10 μg/mL.),Y (Y = MPC@4 of 2 μg/mL to 10 μg/mL.),–,X (X = MPC@4 of less than 2 μg/mL.),–,–,–,X (X = MPC@4 of less than 2 μg/mL.),Y (Y = MPC@4 of 2 μg/mL to 10 μg/mL.),–
C[C@]1(Cn2ccnn2)[C@H](C(=O)O)N2C(=O)C[C@H]2S1(=O)=O [Tazobactam],5,40,–,–,–,–,–,–,–,–,–,–,–,–,–
